Data taken from PubChem BioAssay (NCI).
Values joined by “and” are separate entries in the source; they are usually repeats but may differ in a detail not shown here. Equal entries are not always repeated.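 Step 1: Grow cells in 96-well plates. Step 2: Expose to compound for 48 hours at 5 concentrations. Step 3: Interpolate endpoints linearly; if unreached, use highest concentration. GI50 is the concentration that inhibits growth by half. The concentration for full growth arrest is given as TGI.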 Where a SMILES comes first, the peptide text is derived from it. [ ]: non-standard residue; d: D form. The star is where a group is joined. X13 = OC[C@H](CC1CCCCC1)N*; Aib = CC(C)(N)C(=O)O

What follows are compounds tested on MDA-MB-468 breast (assay: NCI anticancer screen, dose series, 48 h).

| Compound | GI50 | TGI |
| --- | --- | --- |
| CS(=O)(=O)CCNCc1ccc(-c2ccc3ncnc(Nc4ccc(OCc5cccc(F)c5)c(Cl)c4)c3c2)o1 | 0.0518 µM and 0.0571 µM and 0.013 µM | 0.818 µM and 0.999 µM and 0.152 µM |
| Cc1ccc([P+](Cc2ccccc2)(c2ccccc2)c2ccccc2)cc1 | 0.517 µM | 8.64 µM |
| Oc1cc(N2CC2)c(O)cc1N1CC1 | 0.201 µM | 1.27 µM |
| Cc1ccc(F)c(NC(=O)Nc2ccc(-c3cccc4[nH]nc(N)c34)cc2)c1 | 2.37 µM and 1.86 µM | 5.28 µM and 4.61 µM |
| O=C(CCCn1c2c(sc3ccccc32)c(=O)n2nnc(-c3ccccc3)c12)NCCc1cnc[nH]1 | 0.664 µM | 1.94 µM |
| O=C(/C=C/C12c3ccccc3C(c3ccccc31)C1C(=O)N(c3ccc(Cl)cc3)C(=O)C12)c1ccccn1 (stereo unspecified) | 0.398 µM | – |
| CCCCCCCCCCCCCC[n+]1ccccc1 | 0.111 µM | 0.631 µM |
| CC(=O)NC(C)(C)C(=O)N[C@@H](C)C(=O)NC(C)(C)C(=O)N[C@@H](C)C(=O)NC(C)(C)C(=O)N[C@@H](C)C(=O)N[C@@H](CCC(N)=O)C(=O)NC(C)(C)C(=O)N[C@H](C(=O)NC(C)(C)C(=O)NCC(=O)N[C@@H](CC(C)C)C(=O)NC(C)(C)C(=O)N1CCC[C@H]1C(=O)N[C@H](C(=O)NC(C)(C)C(=O)NC(C)(C)C(=O)N[C@@H](CCC(N)=O)C(=O)N[C@@H](CCC(N)=O)C(=O)N[C@H](CO)CC1CCCCC1)C(C)C)C(C)C (Ac-[Aib]A[Aib]A[Aib]AQ[Aib]V[Aib]GL[Aib]PV[Aib][Aib]QQ-X13) | 0.665 µM | > 4.35 µM |
| O=C([O][Hg][c]1ccccc1)c1ccccc1 | 0.435 µM | 1.94 µM |
| COc1ccc2c(c1)N(Cc1ccc(Cl)cc1)CCC2N1CCCC1=O (stereo unspecified) | 3.41 µM | 19.9 µM |
| C[C@@H](N)COc1ccc(-c2cnc3ccc(N[C@H](C)c4cccc(F)c4)nn23)cc1 | 1.13 µM | 2.67 µM |
| COC1=CC(c2ccc[nH]2)=N/C1=C\c1[nH]c(C)c(C(=O)CCC(=O)Oc2ccc3c(c2)CCC2C3CC[C@]3(C)[C@@H](O)CC[C@@H]23)c1C (stereo partly specified) | 2.52 µM | 39.8 µM |
| CNC(=O)c1nn(C)c2c1C(C)(C)Cc1cnc(Nc3cccc(N4CCN(C)CC4)c3)nc1-2 | 0.348 µM | 3.3 µM |
| CCn1c(-c2nonc2N)nc2c(C#CC(C)(C)O)ncc(OC3CCNCC3)c21 | 0.267 µM | 10.4 µM |
| CNS(=O)(=O)OCC1OC(n2cnc3cncnc32)C(O)C1O (stereo unspecified) | > 100 µM | > 100 µM |
| C[C@H](c1ccc(F)cc1CCCC(=O)O)N(c1cc(F)ccc1F)S(=O)(=O)c1ccc(Cl)cc1 | 17.3 µM | 84.7 µM |
| CS(=O)(=O)N1CCC(n2c(=O)c(Oc3ccc(F)cc3F)cc3cnc(NC4CCOCC4)nc32)CC1 | > 25 µM | > 25 µM |
| OCc1ccc(-c2csc(-c3ccc(CO)o3)c2)o1 | 0.188 µM | 0.486 µM |
| CNCc1cccc2c1OCCCCCCC(C)(O)CC(C)(C)S(=O)(=O)c1ccc(cc1)-c1cnc(N)c(n1)C(=O)N2 (stereo unspecified) | 0.196 µM | 1.16 µM |
| NC(=O)c1cccc2c(N[C@H](CN3CCC3)c3ccc(Cl)c(C(F)(F)F)c3)ncnc12 | 0.108 µM | 1.28 µM |
| CN(C)C1CCN(Cc2ccc(NC(=O)c3cncc(C#Cc4cnc(N)c5ncccc45)c3)cc2C(F)(F)F)CC1 | 6.49 µM | 16.5 µM |

| Compound | GI50 | TGI |
| --- | --- | --- |
| Cc1ccc(C2=Nn3c(nnc3-c3ccccc3)SC2)cc1 | 1.69 µM | 8.08 µM |
| CN1CC=C(c2cc(NC(=O)Nc3ccc(Oc4ccnc(NC(=O)C5CC5)c4)c(F)c3)cc(C(F)(F)F)c2)CC1 | 0.286 µM | 1.99 µM |
| Oc1c(C(Nc2ccccn2)c2cccc(Oc3ccccc3)c2)ccc2cccnc12 (stereo unspecified) | 0.441 µM | 8.92 µM |
| Cc1ccccc1C1=C(c2cn(C)c3ccccc23)C(=O)NC1=O | 15.5 µM | > 25 µM |
| Cn1cc(C2=C(c3c4n(c5ccccc35)CCNC4)C(=O)NC2=O)c2ccccc21 | 3.81 µM | > 20.9 µM |
| COc1ccc(-c2cc(/C=C3\C(=O)Nc4cc(Cl)ccc43)[nH]n2)cc1 | 2.62 µM | 9.48 µM |
| CCC(C)(C)c1cc(O)c(C(C)(C)CC)cc1O | 2.11 µM | 5.8 µM |
| C/C(CCC(=O)O)=N/Nc1ccc([N+](=O)[O-])cc1 | > 100 µM | > 100 µM |
| COc1cc(-c2cc3ncccc3c3nc(OCCN(C)C)c4cccnc4c23)cc(OC)c1OC | 0.919 µM | 5.36 µM |
| CC1=C/C=C/C(=O)O[C@@H]([C@H](C)[C@H](O)[C@@H](C)NC(=O)C(C)C)[C@H](C)/C=C/C(C)=C/[C@H]2C=CCC[C@@]2(C)\C=C\1 | 0.11 µM and 0.0235 µM | 6.41 µM |
| O=C(c1ccccc1)C(Cl)C(Cl)c1ccccc1 (stereo unspecified) | 1.38 µM | 4.31 µM |
| CCCCCCC1N=C(N)N=C(N)N1c1cccc(Cl)c1 (stereo unspecified) | 0.122 µM | 0.936 µM |
| CN1CCN(Cc2ccc(NC(=O)c3cncc(C#Cc4c(N)ncc5ccc(C#N)cc45)c3)cc2C(F)(F)F)CC1 | 2.89 µM | 11.5 µM |
| N#CC1C[C@@H]2CC3(CCC2CN1C(=O)c1ccccc1)OCCO3 (stereo partly specified) | > 100 µM | > 100 µM |
| Cc1ccc(-c2nc3nc(-c4ccc(F)cc4)nc(N4CCNCC4)c3o2)cc1 | 1.74 µM | 3.38 µM |
| CC(c1cc(Cl)ccc1O)c1cc(Cl)ccc1O | 2.98 µM | 9.47 µM |
| CCN1CCC(CC(=O)Nc2n[nH]c3nnc(-c4cccc(F)c4F)cc23)CC1 | 3.45 µM | > 23 µM |
| CN1CCN(C(=O)[C@@]2(C)CC[C@]3(C)CC[C@]4(C)C(=CC[C@@H]5[C@@]6(C)CCC(=O)NC(C)(C)[C@@H]6CC[C@]54C)[C@@H]3C2)CC1 | 1.22 µM | 2.82 µM |
| N#Cc1c(NCc2ccccc2)nc(NCc2ccccc2)c(C#N)c1-c1ccc(Cl)cc1 | > 50 µM | > 50 µM |
| COC(=O)c1ccc2nc(-c3cc4ccccc4n3C)n(CCCCOc3cc4c(cc3OC)C(=O)N3CCC[C@H]3C=N4)c2c1 | 0.356 µM | 1.26 µM |
